{
  "source": "patent US20090123501A1",
  "about": "“INHIBITION OF THE SH2-DOMAIN CONTAINING PROTEIN TYR-PHOSPHATASE, SHP-1, TO ENHANCE VACCINES” (Baylor College of Medicine, priority 2007, published 2009)",
  "tested_on": "total splenocytes",
  "experiment": "T cell subsets in total splenocytes 7 days after DC vaccination, flow cytometry",
  "type": "in vivo, C57BL/6 mice",
  "conditions": "by viral treatment, peptides pooled",
  "procedure": "To determine the effect of SHP-1 inhibition on the initiation of T cell responses, BMDCs were cultured and CD11c^+ MACS purified as described above. […] Following peptide loading DCs were left untreated or transduced with one of 3 different adenoviral vectors: 1) Ad5-SHP-1-shRNA; 2) Ad5-scrambled-shRNA; or 3) Ad5-CMV-empty, an adenovirus carrying a CMV promoter expression vector but no insert. […] Using all combinations of peptide and virus treatment yielded 9 experimental vaccines and one no vaccine control. Vaccines (2×10^6 DCs) were injected i.p. into wt C57BL/6 mice. Seven days following vaccination mice were sacrificed and total splenocytes were analyzed by multi-color flow cytometry for the expression of several T cell subsets. CD3^+ CD8^+IFNγ^+ cells were characterized as CTL effectors, CD3^+ CD4^+IFNγ^+ cells were characterized as Th1 helper T cells, and CD4^+ FOXP3^+ cells were characterized as Treg cells. Flow cytometry data were analyzed by one-way analysis of variance (ANOVA) and Tukey-Kramer HSD multiple comparisons test for percentage of cells falling within each population following treatment. Cells were stained with anti-CD3, anti-CD8 and anti IFNγ to differentiate CD8^+ effectors and CD4^+ Th1 T cell skewing or anti-CD4 and anti-FOXP3 to determine Tregs. To determine if there was a peptide specific effects between the 3 different tumor antigens, viral treatments were pooled for each peptide exposure. Data represent the averages 6 mice per peptide treatment group and 2 mice in the no treatment control group. No significant differences were seen between peptides in the induction of Tregs or CD8^+ effector cells.\n(§1) Following peptide loading DCs were left untreated or transduced with one of 3 different adenoviral vectors: 1) Ad5-SHP-1-shRNA; 2) Ad5-scrambled-shRNA; or 3) Ad5-CMV-empty, an adenovirus carrying a CMV promoter expression vector but no insert. Vaccines were injected i.p. into wt C57BL/6 mice and T cell skewing analyzed 7 days later by flow cytometry from total splenocytes. Cells were stained with anti-CD3, anti-CD8 and anti IFNγ for effector and Th1 cells or anti-CD4 and anti-FOXP3 for Tregs. For the peptide specific analysis viral treatments were pooled for each peptide exposure. Data represent the averages 6 mice per peptide treatment and two mice in the no treatment control group. The green diamonds represent the mean and 95% confidence interval for each group from the ANOVA. The black line is the mean of means for the study and red asterisk (*) indicates significant differences (p<0.05 by Tukey-Kramer HSD multiple comparisons test).\nas §1, with “the SHP-1” for “the peptide”, “each viral treatment.” for “each peptide exposure.”, “and 2” for “and two”, “ANOVA. […]” for “ANOVA. The black line is the mean of means for the study and red asterisk (*) indicates significant differences (p<0.05 by Tukey-Kramer HSD multiple comparisons test).”",
  "key": {"[1]": {"conditions": "2×10^6 DCs i.p., day 7, vs no vaccine control"}},
  "data": [
    {"sequence": "CACCGGAGCATGACACAGCAGAATACGAATATTCTGCTGTGTCATGCTCC (chemistry not given here) [Ad5-SHP-1-shRNA]", "values": [
      {"measurement": "proportion of CD4+ Th1 skewed T cells (CD3+CD4+IFNγ+)", "setting": "[1]", "result": "significantly higher proportion"},
      {"measurement": "proportion of CD8+ effector cells (CD3+CD8+IFNγ+)", "setting": "[1]", "result": "significantly higher proportion"},
      {"measurement": "percentage of Tregs (CD4+FOXP3+)", "setting": "day 7, vs empty viral control", "result": "significantly decreased the percentage of Tregs"}
    ]}
  ]
}
